Molecules are shown by their SMILES.

The assay has as its target T1, human chemokine receptor 2 isoform B (Homo sapiens, UniProt P41597).
T1 construct: host or cells: CHOK1-CCR2B-A5 cells (CHO-K1)
T1 sequence (P41597 1-360 isoform P41597-2): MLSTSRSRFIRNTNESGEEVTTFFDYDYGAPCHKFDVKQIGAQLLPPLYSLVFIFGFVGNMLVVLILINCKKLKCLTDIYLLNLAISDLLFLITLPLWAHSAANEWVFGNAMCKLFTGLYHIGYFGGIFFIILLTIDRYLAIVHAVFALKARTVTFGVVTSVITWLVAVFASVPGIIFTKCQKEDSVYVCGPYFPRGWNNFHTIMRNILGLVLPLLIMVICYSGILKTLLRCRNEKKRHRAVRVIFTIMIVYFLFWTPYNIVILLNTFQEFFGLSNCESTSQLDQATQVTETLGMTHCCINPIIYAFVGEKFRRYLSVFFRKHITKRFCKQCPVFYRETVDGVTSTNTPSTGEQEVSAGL
Description: Calcium mobilization assay (FLIPR, antagonist activity against MCP-1). Type of assay: cell-based. The settings on record: Ca mobilisation assay, CHOK1-CCR2B-A5 cells, inhibition of calcium increase induced by 20 nM MCP-1. The essentials: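 CHOK1 cells stably overexpressing human CCR2B, loaded with 4 μM Fluo-4 for 2 h at 30° C, compounds added and agonist signal read by FLIPR for 80 s. After 20-30 min at 30° C, 20 nM MCP-1 was added and fluorescence read again. IC50 is 50% inhibition of specific calcium increase (max minus basal).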
(Calcium flux is commonly read through the fluorescence of an indicator in the cells.)

Usually IC50 stands for the point on the concentration scale where inhibition reaches its midpoint. `COC(=O)[C@H](CCC(=O)N1CCC2(CC2)[C@H](O)C1)N1CCN(C(=O)Nc2ccc(C(F)(F)F)c(Cl)c2)[C@@H](C)C1=O` [Example 52, (S)-2-[(S)-4-(3-Chloro-4-trifluoromethyl-phenylcarbamoyl)-3-methyl-2-oxo-piperazin-1-yl]-5-((S)-4-hydroxy-6-aza-spiro[2.5]oct-6-yl)-5-oxo-pentanoic acid methyl ester]: the half-inhibitory concentration (IC50) stood at 738 nM.

Take `C[C@H]1C(=O)N([C@H](CO)CCC(=O)N2CCC3(CC3)[C@H](O)C2)CCN1C(=O)Nc1ccc(C(F)(F)F)c(Cl)c1` [Example 53, (S)-4-[(S)-4-((S)-4-Hydroxy-6-aza-spiro[2.5]oct-6-yl)-1-hydroxymethyl-4-oxo-butyl]-2-methyl-3-oxo-piperazine-1-carboxylic acid (3-chloro-4-trifluoromethyl-phenyl)-amide]: the half-inhibitory concentration (IC50) is 4.3 nM.

Turning to `COC(=O)[C@H](CCC(=O)N1CCC2(CC2)[C@H](O)C1)N1CCN(C(=O)Nc2ccc(OC(F)(F)F)c(Cl)c2)[C@@H](C)C1=O` [Example 54, (S)-2-[(S)-4-(3-Chloro-4-trifluoromethoxy-phenylcarbamoyl)-3-methyl-2-oxo-piperazin-1-yl]-5-((S)-4-hydroxy-6-aza-spiro[2.5]oct-6-yl)-5-oxo-pentanoic acid methyl ester], the 50% inhibitory concentration (IC50) came out at 216 nM.

Regarding `C[C@H]1C(=O)N([C@H](CO)CCC(=O)N2CCC3(CC3)[C@H](O)C2)CCN1C(=O)Nc1ccc(OC(F)(F)F)c(Cl)c1` [Example 55, (S)-4-[(S)-4-((S)-4-Hydroxy-6-aza-spiro[2.5]oct-6-yl)-1-hydroxymethyl-4-oxo-butyl]-2-methyl-3-oxo-piperazine-1-carboxylic acid (3-chloro-4-trifluoromethoxy-phenyl)-amide], the IC50 was 1.8 nM.

Take `C[C@H]1C(=O)N([C@@H](CCC(=O)N2CCC3(CC3)[C@H](O)C2)C(=O)O)CCN1C(=O)Nc1ccc(OC(F)(F)F)c(Cl)c1` [Example 56, Lithium; (S)-2-[(S)-4-(3-chloro-4-trifluoromethoxy-phenylcarbamoyl)-3-methyl-2-oxo-piperazin-1-yl]-5-((S)-4-hydroxy-6-aza-spiro[2.5]oct-6-yl)-5-oxo-pentanoate]: the IC50 turned out to be 387 nM.

For the molecule `C[C@H]1C(=O)N([C@H](CO)CCC(=O)N2CCC3(CC3)[C@H](O)C2)CCN1C(=O)N(C)c1ccc(OC(F)(F)F)c(Cl)c1` [Example 57, (S)-4-[(S)-4-((S)-4-Hydroxy-6-aza-spiro[2.5]oct-6-yl)-1-hydroxymethyl-4-oxo-butyl]-2-methyl-3-oxo-piperazine-1-carboxylic acid (3-chloro-4-trifluoromethoxy-phenyl)-methyl-amide], the half-maximal inhibitory concentration (IC50) turned out to be 2570 nM.

Take `C[C@H]1C(=O)N(CCCC(=O)N2CCC3(CC3)[C@H](O)C2)CCN1c1ccc(Cl)c(Cl)c1` [Example 59, (S)-4-(3,4-dichloro-phenyl)-1-[4-((S)-4-hydroxy-6-aza-spiro[2.5]oct-6-yl)-4-oxo-butyl]-3-methyl-piperazin-2-one]: the concentration for half-maximal inhibition (IC50) is 23.2 nM.

`C[C@H]1C(=O)N(CCCC(=O)N2CCC3(CC3)[C@H](O)C2)CCN1c1ccc(C(F)(F)F)c(Cl)c1` [Example 60, (S)-4-(3-chloro-4-trifluoromethyl-phenyl)-1-[4-((S)-4-hydroxy-6-aza-spiro[2.5]oct-6-yl)-4-oxo-butyl]-3-methyl-piperazin-2-one]: the concentration for half-maximal inhibition (IC50) worked out at 5 nM.

On to `C[C@H]1C(=O)N(CCCC(=O)N2CCC3(CC3)[C@H](O)C2)CCN1c1ccc(Cl)c(OC(F)(F)F)c1` [Example 62, (S)-4-(4-chloro-3-trifluoromethoxy-phenyl)-1-[4-((S)-4-hydroxy-6-aza-spiro[2.5]oct-6-yl)-4-oxo-butyl]-3-methyl-piperazin-2-one], for which the concentration for half-maximal inhibition (IC50) is 41.7 nM.

Consider `C[C@H]1C(=O)N(CCC(=O)N2CCC3(CC3)[C@H](O)C2)CCN1C(=O)/C=C/c1ccc(F)c(Cl)c1` [Example 64, (S)-4-[(E)-3-(3-Chloro-4-fluoro-phenyl)-acryloyl]-1-[3-((S)-4-hydroxy-6-aza-spiro[2.5]oct-6-yl)-3-oxo-propyl]-3-methyl-piperazin-2-one], for which the IC50 was 1240 nM.

With `C[C@@H]1CN(CCCC(=O)N2CCC3(CC3)[C@H](O)C2)C(=O)C=CN1c1ccc(C(F)(F)F)c(Cl)c1` [Example 65, (R)-1-(3-Chloro-4-trifluoromethyl-phenyl)-4-[4-((S)-4-hydroxy-6-aza-spiro[2.5]oct-6-yl)-4-oxo-butyl]-2-methyl-1,2,3,4-tetrahydro-[1,4]diazepin-5-one], the half-maximal inhibitory concentration (IC50) is 610 nM.

On to `C[C@@H]1CN(CCCC(=O)N2CCC3(CC3)[C@H](O)C2)C(=O)CCN1c1ccc(C(F)(F)F)c(Cl)c1` [Example 66, (R)-1-(3-Chloro-4-trifluoromethyl-phenyl)-4-[4-((S)-4-hydroxy-6-aza-spiro[2.5]oct-6-yl)-4-oxo-butyl]-2-methyl-[1,4]diazepan-5-one], for which the concentration for half-maximal inhibition (IC50) was 109 nM.

For `O=C(/C=C/c1ccc(Cl)c(Cl)c1)N1CCC(=O)N(CCC(=O)N2CCC(CO)CC2)CC1` [Example 69, 1-[(E)-3-(3,4-Dichloro-phenyl)-acryloyl]-4-[3-(4-hydroxymethyl-piperidin-1-yl)-3-oxo-propyl]-[1,4]diazepan-5-one], the IC50 came out at 481 nM.

As for `O=C(/C=C/c1ccc(Cl)c(Cl)c1)N1CCC(=O)N(CCC(=O)N2CCC(O)(c3ccccc3)CC2)CC1` [Example 72, 1-[(E)-3-(3,4-Dichloro-phenyl)-acryloyl]-4-[3-(4-hydroxy-4-phenyl-piperidin-1-yl)-3-oxo-propyl)-[1,4]diazepan-5-one], the IC50 was 162 nM.

For the molecule `CC1(O)CCN(C(=O)CCN2CCN(C(=O)/C=C/c3ccc(Cl)c(Cl)c3)CCC2=O)CC1` [Example 73, 1-[(E)-3-(3,4-Dichloro-phenyl)-acryloyl]-4-[3-(4-hydroxy-4-methyl-piperidin-1-yl)-3-oxo-propyl]-[1,4]diazepan-5-one], the half-inhibitory concentration (IC50) worked out at 65.9 nM.

`O=C(/C=C/c1ccc(Cl)c(Cl)c1)N1CCC(=O)N(CCC(=O)N2CCC(O)(c3ccccn3)CC2)CC1` [Example 76, 1-[(E)-3-(3,4-Dichloro-phenyl)-acryloyl]-4-[3-(4'-hydroxy-3′,4′,5′,6′-tetrahydro-2′H-[2,4′]bipyridinyl-1′-yl)-3-oxo-propyl]-[1,4]diazepan-5-one]: the IC50 was 971 nM.

As for `O=C(/C=C/c1ccc(Cl)c(Cl)c1)N1CCC(=O)N(CCC(=O)N2CCC(O)(c3cccnc3)CC2)CC1` [Example 77, 1-[(E)-3-(3,4-Dichloro-phenyl)-acryloyl]-4-[3-(4′-hydroxy-3′,4′,5′,6′-tetrohydro-2′H-[3,4′]bipyridinyl-1′-yl)-3-oxo-propyl]-[1,4]diazepan-5-one], the IC50 turned out to be 129 nM.

Take `O=C(/C=C/c1ccc(Cl)c(Cl)c1)N1CCC(=O)N(CCC(=O)N2CCC(O)(c3ccncc3)CC2)CC1` [Example 78, 1-[(E)-3-(3,4-Dichloro-phenyl)-acryloyl]-4-[3-(4-hydroxy-3,4,5,6-tetrahydro-2H-[4,4′]bipyridinyl-1-yl)-3-oxo-propyl)-[1,4]diazepan-5-one]: the half-inhibitory concentration (IC50) was found to be 51.2 nM.

As for `O=C1CCCN(C(=O)CCN2CCN(C(=O)/C=C/c3ccc(Cl)c(Cl)c3)CCC2=O)C1` [Example 79, 1-[(E)-3-(3,4-Dichloro-phenyl)-acryloyl]-4-[3-oxo-3-(3-oxo-piperidin-1-yl)-propyl]-[1,4]diazepan-5-one], the IC50 stood at 1820 nM.

Turning to `CN1CCN(C(=O)CCN2CCN(C(=O)/C=C/c3ccc(Cl)c(Cl)c3)CCC2=O)CC1=O` [Example 80, 1-[(E)-3-(3,4-Dichloro-phenyl)-acryloyl]-4-[3-(4-methyl-3-oxo-piperazin-1-yl)-3-oxo-propyl]-[1,4]diazepan-5-one], the half-inhibitory concentration (IC50) worked out at 3250 nM.

Take `O=C(/C=C/c1ccc(Cl)c(Cl)c1)N1CCC(=O)N(CCC(=O)N2CCCCC2)CC1` [Example 82, 1-[(E)-3-(3,4-Dichloro-phenyl)-acryloyl]-4-(3-oxo-3-piperidin-l-yl-propyl)-[1,4]diazepan-5-one]: the IC50 was 1830 nM.

In the case of `O=C(/C=C/c1ccc(Cl)c(Cl)c1)N1CCC(=O)N(CCC(=O)N2CCC3(CCCC3)CC2)CC1` [Example 83, 4-[3-(8-Aza-spiro[4.5]dec-8-yl)-3-oxo-propyl]-1-[(E)-3-(3,4-dichloro-phenyl)-acryloyl]-[1,4]diazepan-5-one], the IC50 turned out to be 307 nM.

For the molecule `CC(C)(C)C1(O)CCN(C(=O)CCN2CCN(C(=O)/C=C/c3ccc(Cl)c(Cl)c3)CCC2=O)CC1` [Example 84, 4-[3-(4-tert-Butyl-4-hydroxy-piperidin-1-yl)-3-oxo-propyl]-1-[(E)-3-(3,4-dichloro-phenyl)-acryloyl]-[1,4]diazepan-5-one], the 50% inhibitory concentration (IC50) amounted to 47.9 nM.

Take `CC1CCN(C(=O)CCN2CCN(C(=O)/C=C/c3ccc(Cl)c(Cl)c3)CCC2=O)CC1` [Example 85, 1-[(E)-3-(3,4-Dichloro-phenyl)-acryloyl]-4-[3-(4-methyl-piperidin-1-yl)-3-oxo-propyl]-[1,4]diazepan-5-one]: the IC50 came out at 1520 nM.

On to `O=C(/C=C/c1ccc(Cl)c(Cl)c1)N1CCC(=O)N(CCC(=O)N2CCC3(CCCO3)CC2)CC1` [Example 86, 1-[(E)-3-(3,4-Dichloro-phenyl)-acryloyl]-4-[3-(1-oxa-8-aza-spiro[4.5]dec-8-yl)-3-oxo-propyl]-[1,4]diazepan-5-one], for which the IC50 came to 326 nM.

The values are drawn from patent US8445674B2, “Heterocyclyl compounds” (Hoffmann-La Roche Inc, priority 2009, dated 2013).
